Test system: MCF-7 cells
Assay: Inhibitory effect on the growth of MCF-7 cells (CellTiter-Glo, 10 days)
Format: cell-based
Conditions: Homo sapiens, MCF7, 240 h, 10 days incubation, CellTiter-Glo chemiluminescence
Procedure: Assay 2: Inhibitory effect of compounds of the present invention on the growth of MCF-7 cells by a cell drug inhibition experiment
1. Experimental Materials
1) Reagents: DMEM high glucose medium (Lonza #12-604F), FBS (BI #04-00F1ACS), antibiotics (Thermofisher #15070063), bovine insulin (Western reagent #11070-73-8), trypsin (Thermofisher #25200-056), CellTiter-Glo reagent (Promega #G7571)
2) Instruments: American MD-M5 microplate reader 5;
2. Experimental Procedures:
1) 100 μl of MCF-7 cells was added to a medium in a white opaque 96-well plate at a density of 5000 cells/ml in which the medium is DMEM high-glucose medium supplemented with 10% FBS. The cells were cultured in a 5% CO2 cell incubator at 37° C. for 24 hours.
2) Different concentrations of corresponding compounds were added to the 96-well plate for incubating MCF-7 cells. The cells were incubated for 10 days in a 5% CO2 cell incubator.
3) To each well of MCF-7 cells, 100 μl of CellTiter-Glo reagent was added and then set aside at room temperature for 10 minutes. The chemiluminescence signal was read using an MD-M5 microplate reader, and the data was processed using GraphPad Prism to calculate IC50 value.

Row | IC50 [nM] | SMILES
1 | 1 to 10 | CC(C)C[C@H]1[C@H](c2ccc(NC3CN(CCCF)C3)cc2)c2ccc3[nH]ncc3c2CN1C [Example 1, 1-(3-fluoropropyl)-N-(4-((6R, 7S)-7-isobutyl-8-methyl-6,7,8,9-tetrahydro-3H-pyrazolo [3,4-h]isoquinolin-6-yl)phenyl)azetidin-3-amine]
2 | ≤ 1 | CC(C)C[C@H]1[C@H](c2c(F)cc(NC3CN(CCCF)C3)cc2F)c2ccc3[nH]ncc3c2CN1C [Example 2, N-(3,5-difluoro-4-((6S, 7S)-7-isobutyl-8-methyl-6,7,8,9-tetrahydro-3H-pyrazolo [3,4-h]isoquinolin-6-yl)phenyl)-1-(3-fluoropropyl) azetidin-3-amine]
3 | > 1000 | CC(C)C[C@H]1[C@H](c2c(F)cc(NC3CN(CC(F)CF)C3)cc2F)c2ccc3[nH]ncc3c2CN1C (stereo partly drawn) [Example 3, N-(3,5-difluoro-4-((6S, 7S)-7-isobutyl-8-methyl-6,7,8,9-tetrahydro-3H-pyrazolo [3,4-h]isoquinolin-6-yl)phenyl)-1-(2,3-difluoropropyl) azetidin-3-amine]
4 | > 1000 | CC(C)C[C@H]1[C@H](c2c(F)cc(NC3CN(CCC(F)(F)F)C3)cc2F)c2ccc3[nH]ncc3c2CN1C [Example 4, N-(3,5-difluoro-4-((6S, 7S)-7-isobutyl-8-methyl-6,7,8,9-tetrahydro-3H-pyrazolo [3,4-h]isoquinolin-6-yl)phenyl)-1-(3,3,3-trifluoropropyl) azetidin-3-amine]
5 | > 1000 | CN1Cc2c(ccc3[nH]ncc23)[C@@H](c2c(F)cc(NC3CN(CCCF)C3)cc2F)[C@@H]1CC1CC1 [Example 5, N-(4-((6S, 7S)-7-cyclopropylmethyl-8-methyl-6,7,8,9-tetrahydro-3H-pyrazolo [3,4-h]isoquinolin-6-yl)-3,5-difluorophenyl)-1-(3-fluoropropyl) azetidin-3-amine]
6 | > 1000 | CCCN1CC(Nc2cc(F)c([C@@H]3c4ccc5[nH]ncc5c4CN(C)[C@H]3CC(C)C)c(F)c2)C1 [Example 6, N-(3,5-difluoro-4-((6S, 7S)-7-isobutyl-8-methyl-6,7,8,9-tetrahydro-3H-pyrazolo [3,4-h]isoquinolin-6-yl)phenyl)-1-propylazetidin-3-amine]
7 | > 1000 | CCCCN1CC(Nc2cc(F)c([C@@H]3c4ccc5[nH]ncc5c4CN(C)[C@H]3CC(C)C)c(F)c2)C1 [Example 7, 1-butyl-N-(3,5-difluoro-4-((6S, 7S)-7-isobutyl-8-methyl-6,7,8,9-tetrahydro-3H-pyrazolo [3,4-h]isoquinolin-6-yl)phenyl) azetidin-3-amine]
8 | > 1000 | CC(C)C[C@H]1[C@H](c2c(F)cc(NC3CN(CC(C)C)C3)cc2F)c2ccc3[nH]ncc3c2CN1C [Example 8, N-(3,5-difluoro-4-((6S, 7S)-7-isobutyl-8-methyl-6,7,8,9-tetrahydro-3H-pyrazolo [3,4-h]isoquinolin-6-yl)phenyl)-1-isobutylazetidin-3-amine]
9 | > 1000 | CCCCCN1CC(Nc2cc(F)c([C@@H]3c4ccc5[nH]ncc5c4CN(C)[C@H]3CC(C)C)c(F)c2)C1 [Example 9, N-(3,5-difluoro-4-((6S, 7S)-7-isobutyl-8-methyl-6,7,8,9-tetrahydro-3H-pyrazolo [3,4-h]isoquinolin-6-yl)phenyl)-1-pentylazetidin-3-amine]
10 | ≤ 1 | CC(C)C[C@H]1[C@H](c2c(F)cc(SC3CN(CCCF)C3)cc2F)c2ccc3[nH]ncc3c2CN1C [Example 10, (6S, 7S)-6-(2,6-difluoro-4-((1-(3-fluoropropyl)azetidin-3-yl)thio)phenyl)-7-isobutyl-8-methyl-6,7,8,9-tetrahydro-3H-pyrazolo [3,4-h]isoquinoline]
11 | ≤ 1 | CCCN1CC(Sc2cc(F)c([C@@H]3c4ccc5[nH]ncc5c4CN(C)[C@H]3CC(C)C)c(F)c2)C1 [Example 11]
12 | 10 to 1000 | CCCCN1CC(Sc2cc(F)c([C@@H]3c4ccc5[nH]ncc5c4CN(C)[C@H]3CC(C)C)c(F)c2)C1 [Example 12, (6S, 7S)-6-(4-((1-butylazetidin-3-yl)thio)-2,6-difluorophenyl)-7-isobutyl-8-methyl-6,7,8,9-tetrahydro-3H-pyrazolo [3,4-h]isoquinoline]
13 | 10 to 1000 | CC(C)C[C@H]1[C@H](c2c(F)cc(SC3CN(CC(C)C)C3)cc2F)c2ccc3[nH]ncc3c2CN1C [Example 13, (6S, 7S)-6-(2,6-difluoro-4-((1-isobutylazetidin-3-yl)thio)phenyl)-7-isobutyl-8-methyl-6,7,8,9-tetrahydro-3H-pyrazolo [3,4-h]isoquinoline]
14 | > 1000 | CCCCCN1CC(Sc2cc(F)c([C@@H]3c4ccc5[nH]ncc5c4CN(C)[C@H]3CC(C)C)c(F)c2)C1 [Example 14, (6S, 7S)-6-(2,6-difluoro-4-((1-pentylazetidin-3-yl)thio)phenyl)-7-isobutyl-8-methyl-6,7,8,9-tetrahydro-3H-pyrazolo [3,4-h]isoquinoline]
15 | ≤ 1 | CC(C)C[C@H]1[C@H](c2c(F)cc(OC3CN(CCCF)C3)cc2F)c2ccc3[nH]ncc3c2CN1C [Example 15, (6S, 7S)-6-(2,6-difluoro-4-((1-(3-fluoropropyl)azetidin-3-yl)oxy)phenyl)-7-isobutyl-8-methyl-6,7,8,9-tetrahydro-3H-pyrazolo [3,4-h]isoquinoline]
16 | ≤ 1 | CCCN1CC(Oc2cc(F)c([C@@H]3c4ccc5[nH]ncc5c4CN(C)[C@H]3CC(C)C)c(F)c2)C1 [Example 16, (6S, 7S)-6-(2,6-difluoro-4-((1-propylazetidin-3-yl)oxy)phenyl)-7-isobutyl-8-methyl-6,7,8,9-tetrahydro-3H-pyrazolo [3,4-h]isoquinoline]
17 | 1 to 10 | CC(C)C[C@H]1[C@H](c2c(F)cc(OC3CN(CC(C)C)C3)cc2F)c2ccc3[nH]ncc3c2CN1C [Example 17, (6S, 7S)-6-(2,6-difluoro-4-((1-isobutylazetidin-3-yl)oxy)phenyl)-7-isobutyl-8-methyl-6,7,8,9-tetrahydro-3H-pyrazolo [3,4-h]isoquinoline]
18 | > 1000 | CCCCN1CC(Oc2cc(F)c([C@@H]3c4ccc5[nH]ncc5c4CN(C)[C@H]3CC(C)C)c(F)c2)C1 [Example 18]
19 | > 1000 | CCCCCN1CC(Oc2cc(F)c([C@@H]3c4ccc5[nH]ncc5c4CN(C)[C@H]3CC(C)C)c(F)c2)C1 [Example 19]
20 | > 1000 | CN1Cc2c(ccc3[nH]ncc23)[C@@H](c2c(F)cc(OC3CN(CCCF)C3)cc2F)[C@@H]1CC1CC1 [Example 20, (6S, 7S)-7-(cyclopropylmethyl)-6-(2,6-difluoro-4-((1-(3-fluoropropyl)azetidin-3-yl)oxy)phenyl)-8-methyl-6,7,8,9-tetrahydro-3H-pyrazolo [3,4-h]isoquinoline]
21 | > 1000 | CCCN1CC(Oc2cc(F)c([C@@H]3c4ccc5[nH]ncc5c4CN(C)[C@H]3CC3CC3)c(F)c2)C1 [Example 21, (6S, 7S)-7-cyclopropylmethyl-6-(2,6-difluoro-4-((1-propylazetidin-3-yl)oxy)phenyl)-8-methyl-6,7,8,9-tetrahydro-3H-pyrazolo [3,4-h]isoquinoline]
22 | > 1000 | CC(C)CN1CC(Oc2cc(F)c([C@@H]3c4ccc5[nH]ncc5c4CN(C)[C@H]3CC3CC3)c(F)c2)C1 [Example 22, (6S, 7S)-7-cyclopropylmethyl-6-(2,6-difluoro-4-((1-isobutylazetidin-3-yl)oxy)phenyl)-8-methyl-6,7,8,9-tetrahydro-3H-pyrazolo [3,4-h]isoquinoline]
23 | > 1000 | CCCCN1CC(Oc2cc(F)c([C@@H]3c4ccc5[nH]ncc5c4CN(C)[C@H]3CC3CC3)c(F)c2)C1 [Example 23, (6S, 7S)-6-(4-((1-butylazetidin-3-yl)oxy)-2,6-difluorophenyl)-7-cyclopropylmethyl-8-methyl-6,7,8,9-tetrahydro-3H-pyrazolo [3,4-h]isoquinoline]
24 | > 1000 | CCCCCN1CC(Oc2cc(F)c([C@@H]3c4ccc5[nH]ncc5c4CN(C)[C@H]3CC3CC3)c(F)c2)C1 [Example 24, (6S, 7S)-7-cyclopropylmethyl-6-(2,6-difluoro-4-((1-pentylazetidin-3-yl)oxy)phenyl)-8-methyl-6,7,8,9-tetrahydro-3H-pyrazolo [3,4-h]isoquinoline]
25 | 10 to 1000 | CN1Cc2c(ccc3[nH]ncc23)[C@@H](c2c(F)cc(SC3CN(CCCF)C3)cc2F)[C@@H]1CC1CC1 [Example 25]
26 | 10 to 1000 | CCCN1CC(Sc2cc(F)c([C@@H]3c4ccc5[nH]ncc5c4CN(C)[C@H]3CC3CC3)c(F)c2)C1 [Example 26, (6S, 7S)-7-cyclopropylmethyl-6-(2,6-difluoro-4-((1-propylazetidin-3-yl)thio)phenyl)-8-methyl-6,7,8,9-tetrahydro-3H-pyrazolo [3,4-h]isoquinoline]
27 | > 1000 | CCCCN1CC(Sc2cc(F)c([C@@H]3c4ccc5[nH]ncc5c4CN(C)[C@H]3CC3CC3)c(F)c2)C1 [Example 27, (6S, 7S)-6-(4-((1-butylazetidin-3-yl)thio)-2,6-difluorophenyl)-7-cyclopropylmethyl-8-methyl-6,7,8,9-tetrahydro-3H-pyrazolo [3,4-h]isoquinoline]
28 | > 1000 | CC(C)CN1CC(Sc2cc(F)c([C@@H]3c4ccc5[nH]ncc5c4CN(C)[C@H]3CC3CC3)c(F)c2)C1 [Example 28, (6S, 7S)-6-(4-((1-isobutylazetidin-3-yl)thio)-2,6-difluorophenyl)-7-cyclopropylmethyl-8-methyl-6,7,8,9-tetrahydro-3H-pyrazolo [3,4-h]isoquinoline]

Source: US11236088B2, “Heterocyclic compounds and their application in medicine” (KIND PHARMACEUTICAL, priority 2017, dated 2022)
